Paper PMC3747263 (PLoS ONE, 2013)

What was measured:
LecB (PA-IIL) = LecB (PA-IIL) (Pseudomonas aeruginosa, UniProt Q9HYN5); assay type: binding; conditions: read-out: LecB / KD
BambL = target: T1, BambL (Burkholderia ambifaria, UniProt Q0B4G1); experiment: X-ray crystal structure of complex, […] Å; assay type: binding; conditions: co-crystallised with 5 mM sugar; intra- and intermonomeric sites; reservoir pH 5.0
T1 construct: gene Bamb_5415
T1 sequence (Q0B4G1 1-87 limits assumed): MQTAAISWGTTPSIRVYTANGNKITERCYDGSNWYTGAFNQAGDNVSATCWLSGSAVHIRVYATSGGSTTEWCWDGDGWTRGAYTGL

LecB (PA-IIL), sequence (Q9HYN5 2-115 limits assumed): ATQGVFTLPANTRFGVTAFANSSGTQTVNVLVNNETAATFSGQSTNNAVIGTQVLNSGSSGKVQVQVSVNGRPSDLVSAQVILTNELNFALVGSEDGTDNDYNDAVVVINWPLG

Compound | Kd (LecB (PA-IIL)) [nM] | X-ray crystal structure of complex, 1.6 Å (BambL)
CC(=O)N[C@H]1C(O)O[C@H](CO)[C@@H](O)[C@@H]1O[C@@H]1O[C@H](CO)[C@H](O)[C@H](O)[C@H]1O[C@@H]1O[C@@H](C)[C@@H](O)[C@@H](O)[C@@H]1O (some centres unmarked) [H type 1] | 1390 | –
CC(=O)N[C@H]1[C@H](O[C@H]2[C@@H](O)[C@@H](CO)OC(O)[C@@H]2O)O[C@H](CO)[C@@H](O[C@@H]2O[C@H](CO)[C@H](O)[C@H](O)[C@H]2O)[C@@H]1O[C@@H]1O[C@@H](C)[C@@H](O)[C@@H](O)[C@@H]1O (some centres unmarked) [Le^x tetrasaccharide] | – | BambL was cocrystallised with the Le^x tetrasaccharide
CC(=O)N[C@H]1[C@@H](O[C@H]2[C@@H](O)[C@@H](CO)OC(O)[C@@H]2O[C@@H]2O[C@@H](C)[C@@H](O)[C@@H](O)[C@@H]2O)O[C@H](CO)[C@H](O)[C@@H]1O (some centres unmarked) [A tri] | 10300 | –
CC(=O)N[C@H]1[C@H]([C@H](O)[C@H](O)CO)O[C@@](O[C@H]2[C@@H](O)[C@@H](CO)O[C@@H](O[C@H]3[C@H](O[C@@H]4O[C@@H](C)[C@@H](O)[C@@H](O)[C@@H]4O)[C@@H](CO)OC(O)[C@@H]3NC(C)=O)[C@@H]2O)(C(=O)O)C[C@@H]1O (some centres unmarked) [sLe^a] | 290 | –
CC(=O)N[C@H]1C(O)O[C@H](CO)[C@@H](O[C@@H]2O[C@H](CO)[C@H](O)[C@H](O)[C@H]2O[C@@H]2O[C@@H](C)[C@@H](O)[C@@H](O)[C@@H]2O)[C@@H]1O (some centres unmarked) [H type 2] | 480 | –
